The results in this text go back to US10561650B2, “Method for treating a protozoal infection” (priority 2013, dated 2020).

This test relates to L. donovani promastigotes. Briefly: Cultured L. donovani promastigotes exposed to drugs alone or in two-drug combinations. Format: cell-based. Conditions: typical serum concentrations (e.g. 5 ug/ml); DMEM culture medium; after 144 hours in culture.

On to `Cc1ncc([N+](=O)[O-])n1CCO` [metronidazole], for which the “reduction of promastigotes compared to control” value is given as roughly 50%.

Take `CCC(C)n1ncn(-c2ccc(N3CCN(c4ccc(OCC5COC(Cn6cncn6)(c6ccc(Cl)cc6Cl)O5)cc4)CC3)cc2)c1=O` (centres unmarked) [itraconazole]: the “reduction of promastigotes compared to control” value is roughly 50%.
